Drawing on patent US8299267B2, “(3-hydroxy-4-amino-butan-2-yl) -3- (2-thiazol-2-yl-pyrrolidine-1-carbonyl) benzamide derivatives and related compounds as beta-secretase inhibitors for treating” (CoMentis, Inc., priority 2007, dated 2012), this text covers Ki and IC50 for 19 molecules.

As usually defined, the IC50 is the concentration needed to halve the response being measured. Low values mean greater potency in that assay, high ones weaker potency in that assay.

In one test the target is memapsin 2 (Homo sapiens, UniProt P56817). In words: Inhibition of memapsin 2 beta-secretase activity toward fluorogenic substrate FS-2. The class given is biochemical. The following applies: memapsin 2, pH 4, 37° C., 20 minutes pre-incubation, substrate FS-2; read-out: M2Ki. In outline: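 Memapsin 2 was preincubated with compound 20 min at pH 4, 37 °C, then reacted with fluorogenic substrate FS-2 (MCA-SEVNLDAEFK-DNP), an APP-derived Swedish-variant peptide. Inhibition was followed kinetically by fluorescence.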
Sequence of memapsin 2 (P56817 46-501): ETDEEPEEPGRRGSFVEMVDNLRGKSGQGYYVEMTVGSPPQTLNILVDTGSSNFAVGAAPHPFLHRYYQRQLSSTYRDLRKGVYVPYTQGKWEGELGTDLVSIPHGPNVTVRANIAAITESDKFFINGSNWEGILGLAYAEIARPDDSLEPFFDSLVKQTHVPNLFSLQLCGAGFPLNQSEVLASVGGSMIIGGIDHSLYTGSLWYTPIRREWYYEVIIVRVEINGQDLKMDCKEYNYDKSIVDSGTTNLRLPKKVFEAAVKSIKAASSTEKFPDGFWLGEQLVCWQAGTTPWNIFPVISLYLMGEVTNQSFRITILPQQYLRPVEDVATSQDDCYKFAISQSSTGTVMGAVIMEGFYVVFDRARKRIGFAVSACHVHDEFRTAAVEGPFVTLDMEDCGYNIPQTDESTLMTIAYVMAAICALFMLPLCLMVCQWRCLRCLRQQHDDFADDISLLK

For test [1], the system named is Aβ production in Chinese hamster ovary cells that over-express human APP695 with the London and Swedish mutations. Kind of test: Cellular Aβ IC50 determination (Aβ40 sandwich ELISA). The class given is cell-based. The following applies: Cricetulus griseus; Aβ40 in CHO cells over-expressing human APP695, 24 h incubation. The protocol:
The potency of compounds against memapsin 2 activity was determined in a cellular assay of Aβ production. […] Chinese hamster ovary cells that over-express human APP695 with the London and Swedish mutations were seeded in multi-well plates at 10% confluency. Compounds are dissolved in DMSO to concentrations near 1 mM, and diluted into culture media to a final concentration near 4 μM (final 0.4% DMSO). Compounds were diluted serially and applied to cells in multi-well plates 48 h after seeding. Incubation was continued in 5% CO2 at 37° C. for 24 h. Aliquots were removed and assayed for Aβ40 content using a sandwich ELISA (BioSource International). Amount of Aβ40 over the range of concentration of compounds, relative to control incubations, were fit to a 4-parameter IC50 model.
On the technique in general: In an ELISA, binding on a coated surface is turned into a signal by an enzyme label.

SMILES strings stand for the structures.

Take `Cc1csc([C@H]2CCCN2C(=O)c2cccc(C(=O)N[C@@H](Cc3ccccc3)[C@H](O)CNCc3cccc(N(C)C)c3)c2)n1` [Compound 69, N-((2S,3R)-4-(3-(dimethylamino)benzylamino)-3-hydroxy-1-phenylbutan-2-yl)-3-((R)-2-(4-methylthiazol-2-yl)pyrrolidine-1-carbonyl)benzamide]: the Ki on memapsin 2 is below 100 nM. Further, the IC50 in test [1] was below 300 nM.
As for `COc1cc(C(=O)N[C@@H](Cc2ccccc2)[C@H](O)CN[C@@H](C)c2cccc(OC)c2)cc(C(=O)N2CCC[C@@H]2c2nc(C)cs2)c1` [Compound 20, N-((2S,3R)-3-hydroxy-4-((S)-1-(3-methoxyphenyl)ethylamino)-1-phenylbutan-2-yl)-3-methoxy-5-((R)-2-(4-methylthiazol-2-yl)pyrrolidine-1-carbonyl)benzamide], the Ki on memapsin 2 was below 100 nM. The same molecule had an IC50 in test [1] below 300 nM.
In the case of `Cc1coc([C@H]2CCCN2C(=O)c2cccc(C(=O)N[C@@H](Cc3ccccc3)[C@H](O)CNCc3cccc(C(F)(F)F)c3)c2)n1` [Compound 35, N-((2S,3R)-3-hydroxy-1-phenyl-4-(3-(trifluoromethyl)benzylamino)butan-2-yl)-3-((R)-2-(4-methyloxazol-2-yl)pyrrolidine-1-carbonyl)benzamide], the Ki at memapsin 2 was below 100 nM. Further, the IC50 in test [1] is below 300 nM.
Taken in the same sequence, the figures for `Cc1csc([C@H]2CCCN2C(=O)c2cc(CF)cc(C(=O)N[C@@H](Cc3ccccc3)[C@H](O)CNCc3cncc(C(F)(F)F)c3)c2)n1` [Compound 51, 3-(fluoromethyl)-N-((2S,3R)-3-hydroxy-1-phenyl-4-((5-(trifluoromethyl)pyridin-3-yl)methylamino)butan-2-yl)-5-((R)-2-(4-methylthiazol-2-yl)pyrrolidine-1-carbonyl)benzamide] were below 100 nM and below 300 nM.
Taken in the same sequence, the figures for `Cc1csc([C@H]2CCCN2C(=O)c2cc(C(=O)N[C@@H](Cc3ccccc3)[C@H](O)CNCc3cc(Cl)cc(Cl)c3)cc(N(C)C)c2)n1` [Compound 48, N-((2S,3R)-4-(3,5-dichlorobenzylamino)-3-hydroxy-1-phenylbutan-2-yl)-3-(dimethylamino)-5-((R)-2-(4-methylthiazol-2-yl)pyrrolidine-1-carbonyl)benzamide] were below 100 nM and below 300 nM.
In the case of `Cc1csc([C@H]2CCCN2C(=O)c2cc(C(=O)N[C@@H](Cc3ccccc3)[C@H](O)CNCc3cccc(C(F)(F)F)c3)cc(-c3ncco3)c2)n1` [Compound 28, N-((2S,3R)-3-hydroxy-1-phenyl-4-(3-(trifluoromethyl)benzylamino)butan-2-yl)-3-((R)-2-(4-methylthiazol-2-yl)pyrrolidine-1-carbonyl)-5-(oxazol-2-yl)benzamide], the Ki on memapsin 2 was below 100 nM. For the same molecule, the concentration for half-maximal inhibition (IC50) in test [1] is below 300 nM.
For `Cc1csc([C@H]2CCCN2C(=O)c2cc(C(=O)N[C@@H](Cc3ccccc3)[C@H](O)CNCc3cccc(C(C)(C)C)c3)cc(N(C)C)c2)n1` [Compound 41, N-((2S,3R)-4-(3-tert-butylbenzylamino)-3-hydroxy-1-phenylbutan-2-yl)-3-(dimethylamino)-5-((R)-2-(4-methylthiazol-2-yl)pyrrolidine-1-carbonyl)benzamide] the same measures were below 100 nM and below 300 nM.
Taken in the same sequence, the figures for `Cc1cc(C(=O)N[C@@H](Cc2ccccc2)[C@H](O)CNCc2cncc(C(C)(C)F)c2)cc(C(=O)N2CCC[C@@H]2c2nc(C)cs2)c1` [Compound 42, N-((2S,3R)-4-((5-(2-fluoropropan-2-yl)pyridin-3-yl)methylamino)-3-hydroxy-1-phenylbutan-2-yl)-3-methyl-5-((R)-2-(4-methylthiazol-2-yl)pyrrolidine-1-carbonyl)benzamide] were below 100 nM and below 300 nM.
Consider `Cc1csc([C@H]2CCCN2C(=O)c2cc(C(=O)N[C@@H](Cc3ccccc3)[C@H](O)CNCc3cncc(C(C)(F)F)c3)cc(N(C)C)c2)n1` [Compound 40, N-((2S,3R)-4-((5-(1,1-difluoroethyl)pyridin-3-yl)methylamino)-3-hydroxy-1-phenylbutan-2-yl)-3-(dimethylamino)-5-((R)-2-(4-methylthiazol-2-yl)pyrrolidine-1-carbonyl)benzamide], for which the Ki on memapsin 2 was below 100 nM. In test [1], this molecule yielded an IC50 below 300 nM.
`Cc1csc([C@H]2CCCN2C(=O)c2cccc(C(=O)N[C@@H](Cc3ccccc3)[C@H](O)CNCc3cc(O)cc(C(C)C)c3)c2)n1` [Compound 24, N-((2S,3R)-3-hydroxy-4-(3-hydroxy-5-isopropylbenzylamino)-1-phenylbutan-2-yl)-3-((R)-2-(4-methylthiazol-2-yl)pyrrolidine-1-carbonyl)benzamide]: the Ki at memapsin 2 was below 100 nM. Moreover, the IC50 in test [1] was below 300 nM.
For the molecule `Cc1coc([C@H]2CCCN2C(=O)c2cc(C(=O)N[C@@H](Cc3ccccc3)[C@H](O)CNCc3cncc(C(C)(C)F)c3)cc(-c3ncco3)c2)n1` [Compound 90, N-((2S,3R)-4-((5-(2-fluoropropan-2-yl)pyridin-3-yl)methylamino)-3-hydroxy-1-phenylbutan-2-yl)-3-((R)-2-(4-methyloxazol-2-yl)pyrrolidine-1-carbonyl)-5-(oxazol-2-yl)benzamide], the Ki at memapsin 2 is below 100 nM. Moreover, the IC50 in test [1] is below 300 nM.
Taken in the same sequence, the figures for `COc1cc(C(=O)N[C@@H](Cc2ccccc2)[C@H](O)CNCc2cccc(C(F)(F)F)c2)cc(C(=O)N2CCC[C@@H]2c2nc(C)co2)c1` [Compound 93, N-((2S,3R)-3-hydroxy-1-phenyl-4-(3-(trifluoromethyl)benzylamino)butan-2-yl)-3-methoxy-5-((R)-2-(4-methyloxazol-2-yl)pyrrolidine-1-carbonyl)benzamide] were below 100 nM and below 300 nM.
`Cc1cc(C(=O)N[C@@H](Cc2ccccc2)[C@H](O)CNCc2cncc(C(C)C)c2)cc(C(=O)N2CCC[C@@H]2c2nc(C)cs2)c1` [Compound 52, N-((2S,3R)-3-hydroxy-4-((5-isopropylpyridin-3-yl)methylamino)-1-phenylbutan-2-yl)-3-methyl-5-((R)-2-(4-methylthiazol-2-yl)pyrrolidine-1-carbonyl)benzamide]: at memapsin 2, the Ki is below 100 nM. In test [1], this molecule yielded an IC50 below 300 nM.
For `Cc1csc([C@H]2CCCN2C(=O)c2cc(C(=O)N[C@@H](Cc3ccccc3)[C@H](O)CNCc3cccc(C(F)(F)F)c3)cc(-n3cccc3)c2)n1` [Compound 80, N-((2S,3R)-3-hydroxy-1-phenyl-4-(3-(trifluoromethyl)benzylamino)butan-2-yl)-3-((R)-2-(4-methylthiazol-2-yl)pyrrolidine-1-carbonyl)-5-(1H-pyrrol-1-yl)benzamide] the same measures were below 100 nM and below 300 nM.
For `Cc1coc([C@H]2CCCN2C(=O)c2cccc(C(=O)N[C@@H](Cc3ccccc3)[C@H](O)CNCc3cncc(C(C)C)c3)c2)n1` [Compound 34, N-((2S,3R)-3-hydroxy-4-((5-isopropylpyridin-3-yl)methylamino)-1-phenylbutan-2-yl)-3-((R)-2-(4-methyloxazol-2-yl)pyrrolidine-1-carbonyl)benzamide] the same measures were below 100 nM and below 300 nM.
For `Cc1coc([C@H]2CCCN2C(=O)c2cc(C(=O)N[C@@H](Cc3ccccc3)[C@H](O)CNCc3cccc(C(F)(F)F)c3)ccn2)n1` [Compound 94, N-((2S,3R)-3-hydroxy-1-phenyl-4-(3-(trifluoromethyl)benzylamino)butan-2-yl)-2-((R)-2-(4-methyloxazol-2-yl)pyrrolidine-1-carbonyl)isonicotinamide] the same measures were below 100 nM and below 300 nM.
On to `Cc1csc([C@H]2CCCN2C(=O)c2cc(C(=O)N[C@@H](Cc3ccccc3)[C@H](O)CNCc3cncc(C(C)(C)F)c3)cc(-c3ncco3)c2)n1` [Compound 38, N-((2S,3R)-4-((5-(2-fluoropropan-2-yl)pyridin-3-yl)methylamino)-3-hydroxy-1-phenylbutan-2-yl)-3-((R)-2-(4-methylthiazol-2-yl)pyrrolidine-1-carbonyl)-5-(oxazol-2-yl)benzamide], for which, on memapsin 2, the Ki is below 100 nM. The same molecule displayed an IC50 in test [1] below 300 nM.
Taken in the same sequence, the figures for `Cc1coc([C@H]2CCCN2C(=O)c2cc(CF)cc(C(=O)N[C@@H](Cc3ccccc3)[C@H](O)CNCc3cncc(C(C)C)c3)c2)n1` [Compound 77, 3-(fluoromethyl)-N-((2S,3R)-3-hydroxy-4-((5-isopropylpyridin-3-yl)methylamino)-1-phenylbutan-2-yl)-5-((R)-2-(4-methyloxazol-2-yl)pyrrolidine-1-carbonyl)benzamide] were below 100 nM and below 300 nM.
For `Cc1cc(C(=O)N[C@@H](Cc2ccccc2)[C@H](O)CNCc2cccc(C(F)(F)F)c2)cc(C(=O)N2CCC[C@@H]2c2nc(C)cs2)n1` [Compound 79, N-((2S,3R)-3-hydroxy-1-phenyl-4-(3-(trifluoromethyl)benzylamino)butan-2-yl)-2-methyl-6-((R)-2-(4-methylthiazol-2-yl)pyrrolidine-1-carbonyl)isonicotinamide] the same measures were below 100 nM and below 300 nM.
